The values below come from patent US5321123A, “Protein S polypeptides and anti-peptide antibodies that inhibit protein S binding to C4B binding protein, diagnostic systems and therapeutic methods” (The Scripps Research Institute, priority 1992, dated 1994).

The IC90 is the point of the concentration-response curve where the effect stands at 90%. High values mean weaker potency, low ones greater potency. The term IC50 denotes the concentration that gives 50% inhibition. Read a low IC50 as greater potency. The term Kd denotes the constant that tells how readily two partners part at equilibrium.

Like-named read-outs stand apart in the source and are kept apart here. Bridge positions count the residues as written; N and C are the ends. Peptide text beside a SMILES is read from it.

The target in test [1] is T1, interaction of protein S with C4BP (Homo sapiens, UniProt P04003+P20851).
T1 sequence (P04003 49-597): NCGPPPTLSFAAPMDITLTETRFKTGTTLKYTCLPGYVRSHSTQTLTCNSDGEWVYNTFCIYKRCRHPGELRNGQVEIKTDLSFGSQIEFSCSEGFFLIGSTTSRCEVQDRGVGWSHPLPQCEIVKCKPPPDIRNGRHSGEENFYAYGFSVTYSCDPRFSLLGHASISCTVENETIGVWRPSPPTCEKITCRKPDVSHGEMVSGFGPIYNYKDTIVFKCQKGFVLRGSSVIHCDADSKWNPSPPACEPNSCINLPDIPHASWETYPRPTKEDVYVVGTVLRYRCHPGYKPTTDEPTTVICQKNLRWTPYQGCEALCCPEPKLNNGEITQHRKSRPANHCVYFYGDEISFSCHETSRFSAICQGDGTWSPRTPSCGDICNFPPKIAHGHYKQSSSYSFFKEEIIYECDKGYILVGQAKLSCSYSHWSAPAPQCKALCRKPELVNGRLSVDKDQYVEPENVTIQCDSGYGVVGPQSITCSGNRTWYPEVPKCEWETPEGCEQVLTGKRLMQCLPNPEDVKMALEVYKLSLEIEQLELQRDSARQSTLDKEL
T1 sequence (P20851 18-252): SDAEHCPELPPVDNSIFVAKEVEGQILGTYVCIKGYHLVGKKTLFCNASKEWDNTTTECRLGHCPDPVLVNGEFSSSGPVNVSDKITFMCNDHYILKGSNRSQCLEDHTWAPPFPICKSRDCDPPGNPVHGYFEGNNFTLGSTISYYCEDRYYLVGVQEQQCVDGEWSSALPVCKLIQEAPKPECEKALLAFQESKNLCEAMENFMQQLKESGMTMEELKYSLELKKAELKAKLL
The note with it: in vitro; Walker et al., Weinstein et al.; cited from earlier work.

The target of test [2] is T2, PS:C4BP complex (Homo sapiens, UniProt P04003+P20851).
T2 construct: Purified human C4BP was obtained from 5 liters (l) of human citrated plasma; from tissue; host or cells: human citrated plasma (C4BP); protein S by the method of Schwarz et al
T2 sequence (P04003 49-597): T1 sequence (P04003 49-597)
T2 sequence (P20851 18-252): T1 sequence (P20851 18-252)
Nature of the test: Peptide inhibition of b-C4BP binding to PS-coated wells. The settings on record: b-C4BP 1 μg/ml, peptide 0-500 μM. The method, then:
An alternative approach was used to test the ability of the peptides, PSP-loop, PSP-424K and PSP-428K, in comparison with that seen with the PSP-12 peptide, in inhibiting the binding of C4BP to PS. For this assay, the microtiter wells were coated with purified PS diluted to a concentration of 10 μg/ml in carbonate-coating buffer as described above. The wells were maintained to allow the PS to bind to the well walls. After the maintenance period, the wells were blocked also as described above. The selected PSP peptides were separately admixed at various concentrations ranging from 0-500 μM with biotinylated-C4BP (b-C4BP) at a concentration of 1 μg/ml. The admixtures were maintained on a fluid phase plate for 2 hours at room temperature to form peptide-C4BP complexes.
Fifty μl of the complexed admixtures were separately admixed to the prepared […] and maintained for 1 hour at room temperature. Thereafter, the plate was washed and processed for developing as described above.

Test [3] addresses T2, PS:C4BP complex. Nature of the test: Fluid-phase peptide inhibition of b-PS binding to C4BP, detected on anti-C4BP polyclonal antibody-coated plates. The procedure: (§1) An alternative approach was used to test the ability of the peptides, PSP-loop, PSP-424K and PSP-428K, in comparison with that seen with the PSP-12 peptide, in inhibiting the binding of PS to C4BP, the result of which was detected on polyclonal antibody-coated plates. For this assay, C4BP, biotinylated-PS (b-PS) and PSP peptides were admixed together at the respective concentrations of 3 μg/ml, 0.6 μg/ml and at a range of 0-500 μM (V:V:V). The admixtures were maintained for 2 hours at room temperature on a fluid phase plate to allow the binding and/or inhibition thereof of PS to C4BP by the PS-derived peptides. After the maintenance period, 50 μl of the admixture were separately admixed to wells previously coated with 10 μg/ml of anti-C4BP IgG polyclonal antibody. The admixtures were maintained for 1 hour at room temperature to allow for the binding of C4BP to C4BP-antibody-coated plates. The binding of biotinylated complexes to the antibody-coated plates was detected as described in Example 5Aii.

For test [4], the target named is T2, PS:C4BP complex. Nature of the test: Fluid-phase peptide inhibition of PS binding to b-C4BP, detected on MAb S-7-coated plates. The note with it: b-C4BP 0.5 μg/ml, PS 1.0 μg/ml. The method, then: as §1, with “monoclonal” for “polyclonal”, “biotinylated-C4BP (b-C4BP), PS” for “C4BP, biotinylated-PS (b-PS)”, “0.5” for “3”, “1.0” for “0.6”, “MAb S-7 (ATCC No. HB 80819).” for “anti-C4BP IgG polyclonal antibody.”, “MAb S-7-antibody-coated” for “C4BP-antibody-coated”

Test [5] deals with T2, PS:C4BP complex. The test is described as follows: Peptide Inhibition Assay: b-PS binding to C4BP in solid-phase. The method, then: Each of the peptides produced as described in Example 1 and listed in Table 1 was analyzed for its ability to inhibit the binding of native protein S in liquid-phase to C4BP in solid-phase.
Microtiter wells of a 96 well plate were coated with 50 μl of 10 μg/ml purified C4BP in carbonate buffer (0.02M Na2 CO3, pH 9.0, 0.02% Na-Azide). After blocking with 10% BSA in TBS, 50 μl of different concentrations of peptides diluted in washing buffer (TBS, 0.2% BSA, 5mM CaCl, 0.02% Tween 20) were separately admixed to C4BP-coated wells. After 2 hours at room temperature, 50 μl of a solution of biotinylated protein S, were admixed to each well to form a second binding admixture having a final concentration of 2 μg/ml. The plate was agitated and the samples Were incubated 1 hour at room temperature. The samples were discarded and the wells were washed 3 times with washing buffer. […] The resulting optical densities of the reaction solutions were read as described before in Example 2C. […]
where I is expressed as a percent; and where 100%=delta/min of the amount of b-PS which specifically bound to C4BP-coated wells in the absence of any competing PS-peptide; and where deltaT =the change in absorbance (405 nm) in the presence of competing PS-peptide; and where deltaC =the change in absorbance (405 nm) in the absence of competing PS-peptide.

The target of test [6] is T3, C4BP (Homo sapiens, UniProt P04003+P20851).
T3 sequence (P04003 49-597): T1 sequence (P04003 49-597)
T3 sequence (P20851 18-252): T1 sequence (P20851 18-252)
The note with it: read-out: dissociation constant (Kd) for the protein S - C4BP interaction, cited from earlier work.

With `CC[C@H](C)[C@H](NC(=O)[C@H](C)NC(=O)[C@H](CCC(=O)O)NC(=O)[C@H](CC(=O)O)NC(=O)[C@H](CC(C)C)NC(=O)[C@H](CC(=O)O)NC(=O)[C@H](CC(C)C)NC(=O)[C@H](CCC(N)=O)NC(=O)[C@@H](NC(=O)CN)C(C)C)C(N)=O` [PSP-605, GVQLDLDEAI] (H-GVQLDLDEAI-NH2; N-terminus assumed), the “inhibition of the interaction of protein S with C4BP” value in test [1] is listed as “inhibits the interaction of protein S with C4BP in vitro”.

`CC[C@H](C)[C@H](NC(=O)CNC(=O)[C@@H](N)CO)C(=O)N[C@@H](CCCCN)C(=O)N[C@@H](CCCCN)C(=O)N[C@H](C(=O)N[C@H](C(=O)N[C@@H](CCC(N)=O)C(=O)N[C@@H](CCC(=O)O)C(=O)N[C@@H](CCCCN)C(=O)N[C@@H](CCC(N)=O)C(=O)N[C@@H](CC(N)=O)C(=O)N[C@@H](CCCCN)C(=O)N[C@@H](CS)C(N)=O)[C@@H](C)CC)[C@@H](C)CC` [PSP-424K, SGIKKIIQEKQNKC] (H-SGIKKIIQEKQNKC-NH2; N-terminus assumed): the 90% effect concentration (IC90) in test [2] and in test [4] was approximately 250 µM each time. Also, in test [3], the “inhibition of binding of b-PS to C4BP compared with PSP-loop” value is “inhibitory but with lower effectiveness”.

As to `CC[C@H](C)[C@@H]1NC(=O)[C@H](CO)NC(=O)[C@H](C)NC(=O)CNC(=O)[C@H](CCC(N)=O)NC(=O)[C@H](CCCCN)NC(=O)[C@H](CCSC)NC(=O)[C@H](CC(C)C)NC(=O)[C@H](CC(N)=O)NC(=O)[C@H](Cc2c[nH]c3ccccc23)NC(=O)[C@H](CO)NC(=O)[C@H](CCCNC(=N)N)NC(=O)[C@H]([C@@H](C)CC)NC(=O)[C@@H](N)CSSC[C@@H](C(N)=O)NC(=O)[C@H](Cc2c[nH]cn2)NC(=O)[C@H](CCCCN)NC(=O)[C@H](CC(N)=O)NC(=O)[C@H](CCC(N)=O)NC(=O)[C@H](CCCCN)NC(=O)[C@H](CCC(=O)O)NC(=O)[C@H](CCC(N)=O)NC(=O)[C@H]([C@@H](C)CC)NC(=O)[C@H]([C@@H](C)CC)NC(=O)[C@H](CCC(=O)O)NC(=O)[C@H](CCCCN)NC1=O` [PSP-loop] (H-CIRSWNLMKQGASIKEIIQEKQNKHC-NH2; disulfide 1-26 (inferred); N-terminus and C-terminus assumed), the “peptide concentration that completely inhibits the binding of PS to C4BP” value in test [5] (subsequent experiments) is “approximately 250 μM”. This molecule also had an IC50 in test [3] (C4BP 3 μg/ml, b-PS 0.6 μg/ml) of approximately 40 µM.

As to “Protein S: vitamin K-dependent single chain plasma glycoprotein of 75,000 daltons, cofactor to activated protein C”, the Kd in test [6] (in the presence of Ca++) was 0.0006 µM; in test [6] (in the presence of EDTA), 0.001 µM.

Regarding CPEGYRYNLKSKSC [PSP-7], in test [5], the “inhibition of PS:C4BP complex formation relative to PS-peptides from other regions of protein S” value is “strong inhibition”.
